Measurements: publication PMC10534827 (Pharmaceuticals, 2023)

Legend:
[1] = target: T1, butyrylcholinesterase from equine serum (Equus caballus, UniProt P81908); assay: biochemical; conditions: for inhibition at 1000 µM: 1 mM solution of the tested compound, read-out: Activity [%] (inhibition percentage of BChE); for SI BChE: IC50(AChE)/IC50(BChE); for IC50: mean ± SD of three experiments, read-out: BChE IC50
T1 construct: butyrylcholinesterase from equine serum; purchased Sigma-Aldrich, Hamburg, Germany; host or cells: equine serum
Description: (§1) AChE and BChE inhibitory activity was measured using the microplate assay described by Ellman et al. [68] with the modifications added by López et al. [36]. The compounds were tested at concentrations between 10^−3 and 10^−8 M. First, all compounds were dissolved in 1% DMSO in a concentration of 1 mg/mL.
(§2) Incubation of the plates was performed at room temperature for 30 min. Then, 100 μL of substrate solution were added to start the enzymatic reaction. […] Enzyme activity was calculated as an inhibition percentage compared to an assay including buffer instead of an inhibitor. […] All data were analyzed with the software package Prism 3 (Graph Pad Inc., San Diego, CA, USA).

[2] = Ferric reducing antioxidant power (FRAP); conditions: 150 μL of 5 mM compound, 30 min, 593 nm, Trolox equivalent
PAMPA-BBB permeability = type: in vitro ADME; conditions: for PAMPA BBB −logPe: experimentally measured BBB permeability
Description: At the same time, they needed to fulfill the requirement for good BBB permeation in order to achieve sufficient brain exposure. Although transport across the BBB is quite a complex phenomenon, passive diffusion is still the primary route for exogenous substances to access that target. So, the selected compounds were subjected to an in vitro PAMPA-BBB assay, relying on the capacity of the method in distinguishing the candidates with good BBB passive permeabilities. […].
The blood–brain barrier permeabilities were measured by PAMPA Permeability Analyzer (pIONInc, Billerica, MA, USA). The tested compounds and reference standards were prepared as 10 mM stock solutions in DMSO and further diluted in Prisma HT buffer pH 7.4. The experiment followed the BBB Protocol: 200 μL sample’s aliquots in the donor compartment, Brain Sink Buffer aliquots (200 μL) in the acceptor wells, BBB-1 lipid for coating the permeation membranes, “sandwich” assembly with the acceptor plate on top of the donor one, and incubation at temperature 25 °C for 4 h under humidity control without stirring. For permeability assessment, UV spectra of the blank, reference, donor, and acceptor plates were collected at wavelength 250–500 nm. […]. Samples were analyzed in triplicate and average values were reported. […]. Theophylline, corticosterone, and propranolol HCl were used as reference standards to control the quality and consistency of the BBB permeability experiment.

[3] = target: T2, Acetylcholinesterase from Electrophorus electricus (Electrophorus electricus, UniProt O42275); assay: biochemical; type: biochemical; conditions: for inhibition at 1000 µM: 1 mM solution of the tested compound, read-out: Activity [%] (inhibition percentage of AChE); for IC50: mean ± SD of three experiments, read-out: AChE IC50; for SI AChE: IC50(BChE)/IC50(AChE)
T2 construct: purchased Sigma-Aldrich, Hamburg, Germany
Description: as §1, §2

SH-SY5Y cells = assay: MTT cytotoxicity, SH-SY5Y; type: cell-based, human; conditions: Homo sapiens, SH-SY5Y; MTT, 72 h exposure; read-out: SH-SY5Y IC50
CCL-1 cells = assay: MTT cytotoxicity, CCL-1 normal fibroblasts; type: cell-based, murine; conditions: Mus musculus, Fibroblast; MTT, 72 h exposure; read-out: CCL-1 IC50
[4] = DPPH radical scavenging activity; conditions: 300 μL of 5 mM compound in MeOH, 30 min, 517 nm
Description: The DPPH (2,2-diphenyl-1-picryl-hydrazyl-hydrate) free radical scavenging activity method is based on the neutralization of the DPPH radical by an antioxidant.
Free radical scavenging activity was measured using DPPH method [69, 70] with slight modification. Here, 300 μL of 5 mM solutions of tested compounds in MeOH were added to 2 mL methanolic solution of DPPH (2 mg/mL). […] Results were evaluated as percentage scavenging of radical:DPPH radical scavenging activity (%) = ((Abscontr. − Abssample)/Abscontr.) ×100, where Abscontr. is the absorbance of DPPH radical with 300 μL MeOH, Abssample is the absorbance of DPPH radical solution mixed with sample. BHT was used as positive control.

Neuro-2a cells = assay: MTT cytotoxicity, Neuro-2a; type: cell-based, murine; conditions: Mus musculus, N2a; MTT, 72 h exposure; read-out: Neuro-2a IC50
[5] = Lipid peroxidation in linoleic acid system, FTC method; conditions: 10 mM compound, 500 nm
Description: The antioxidant activity of studied compounds against lipid peroxidation was measured through ammonium thiocyanate assay as described by Takao et al. [66] with some modifications. […] A 10 μL aliquot of the reaction solution was then added to 200 μL of 70% (v/v) ethanol and 10 μL of 30% (w/v) ammonium thiocyanate. […] Aliquots were assayed every 24 h until the day after the absorbance of the control solution (without compound) reached maximum value. BHT (10 mM) was used as positive control.

[6] = ABTS radical scavenging assay; conditions: 734 nm after 5 min
Description: These compounds were also tested for their antioxidant activities by using the ABTS [2,2′-azinobis (3-ethylbenzothiazoline-6-sulfonic acid)] cation radical decolorization method (Table 4). The BHT [41] was used for comparison. The ABTS cation radical is produced by oxidation of the ABTS molecule with strong oxidizing agents, such as potassium persulfate in water.
For ABTS assay, the procedure followed the method of Arnao et al. [71] with some modifications. […] The working solution was then prepared by mixing the two stock solutions in equal quantities and allowing them to react for 14 h at room temperature in the dark. […] A fresh ABTS solution was prepared for each assay. […] The ABTS scavenging capacity of the compound was calculated as follows:ABTS radical scavenging activity (%) = ((Abscontr. − Abssample)/Abscontr.) ×100, where Abscontr. is the absorbance of DPPH radical with 300 μL MeOH, Abssample is the absorbance of DPPH radical solution mixed with the sample. […] BHT was used as positive control.

T2 sequence (O42275 24-633): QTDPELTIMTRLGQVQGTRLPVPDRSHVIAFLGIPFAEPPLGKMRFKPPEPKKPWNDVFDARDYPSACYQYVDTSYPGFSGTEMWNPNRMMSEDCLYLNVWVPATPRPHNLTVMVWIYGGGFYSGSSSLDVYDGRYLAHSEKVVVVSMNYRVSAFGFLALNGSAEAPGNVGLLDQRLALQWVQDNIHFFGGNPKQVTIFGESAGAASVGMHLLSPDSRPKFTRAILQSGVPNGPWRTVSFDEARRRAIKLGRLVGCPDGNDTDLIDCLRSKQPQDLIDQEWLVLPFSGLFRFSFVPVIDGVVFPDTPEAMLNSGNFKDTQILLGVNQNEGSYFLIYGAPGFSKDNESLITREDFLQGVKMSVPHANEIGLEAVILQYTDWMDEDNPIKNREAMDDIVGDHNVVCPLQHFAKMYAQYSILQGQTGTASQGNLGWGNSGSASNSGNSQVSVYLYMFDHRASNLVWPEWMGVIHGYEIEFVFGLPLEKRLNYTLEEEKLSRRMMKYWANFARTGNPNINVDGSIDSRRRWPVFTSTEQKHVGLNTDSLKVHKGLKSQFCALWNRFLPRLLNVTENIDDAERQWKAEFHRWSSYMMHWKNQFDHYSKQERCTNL
T1 sequence (P81908 whole entry): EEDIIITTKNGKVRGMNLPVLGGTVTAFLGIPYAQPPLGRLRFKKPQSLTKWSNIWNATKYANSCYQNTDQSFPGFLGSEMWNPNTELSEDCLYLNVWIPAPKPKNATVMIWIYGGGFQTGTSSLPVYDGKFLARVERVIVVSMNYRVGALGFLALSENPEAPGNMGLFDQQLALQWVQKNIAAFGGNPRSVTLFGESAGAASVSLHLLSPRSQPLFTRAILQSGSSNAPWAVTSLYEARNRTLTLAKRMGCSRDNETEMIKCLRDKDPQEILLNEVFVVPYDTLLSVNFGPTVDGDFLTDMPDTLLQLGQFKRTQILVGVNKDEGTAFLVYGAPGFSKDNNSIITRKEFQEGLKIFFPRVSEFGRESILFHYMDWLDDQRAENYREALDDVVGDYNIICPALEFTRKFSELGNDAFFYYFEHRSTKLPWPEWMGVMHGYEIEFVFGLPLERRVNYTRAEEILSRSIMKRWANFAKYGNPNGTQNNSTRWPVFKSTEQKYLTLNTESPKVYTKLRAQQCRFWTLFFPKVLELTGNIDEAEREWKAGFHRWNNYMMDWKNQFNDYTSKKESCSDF

Row | Compound | inhibition at 1000 µM [1] [%] | SI BChE [1] | IC50 [1] [µM] | FRAP [2] [μMTE] | PAMPA BBB −logPe (PAMPA-BBB permeability) | inhibition at 1000 µM [3] [%] | IC50 [3] [µM] | IC50 (SH-SY5Y cells) [µM] | IC50 (CCL-1 cells) [µM] | DPPH Activity [4] [%] | IC50 (Neuro-2a cells) [µM] | Absorbance Day 1 [5] | Absorbance Day 2 [5] | Absorbance Day 3 [5] | Absorbance Day 4 [5] | Absorbance Day 5 [5] | BBB permeability class (PAMPA-BBB permeability; PAMPA-BBB) | SI AChE [3] | ABTS Activity [6] [%] | IC50 [6] [µM]
1 | O=C(Cc1c[nH]c2ccccc12)N/N=C/C1CCN(Cc2ccccc2)CC1 [3a, N’-[(E)-(1-benzylpiperidin-4-yl)methylidene]-2-(1H-indol-3-yl)acetohydrazide] | 80.4 | 1.35 | 56.5 ± 0.2 | 15.42 ± 0.74 | 4.420 | 78.9 | 76.5 ± 3.04 | 129 ± 7.5 | 138 ± 9.8 | 5.74 ± 0.39 | > 300 | 0.87 ± 0.03 | 0.87 ± 0.08 | 0.72 ± 0.07 | 0.72 ± 0.05 | 0.71 ± 0.08 |  |  |  | 
2 | O=C(N/N=C/C1CCN(Cc2ccccc2)CC1)c1ccc(O)cc1O [3b, N’-[(E)-(1-benzylpiperidin-4-yl)methylidene]-2,4-dihydroxybenzohydrazide] | 75.9 |  | 262 ± 8.75 | 16.63 ± 0.98 | 5.873 | 89.3 | 19.8 ± 0.95 | 138 | 154 ± 7.3 | 13.30 ± 0.83 | > 300 | 0.92 ± 0.06 | 0.93 ± 0.09 | 0.95 ± 0.05 | 0.96 ± 0.01 | 1.00 ± 0.02 | moderately permeable | 13.22 | 93.22 ± 0.30 | 2570 ± 100
3 | O=C(N/N=C/C1CCN(Cc2ccccc2)CC1)c1c[nH]c2ccccc12 [3c, N’-[(E)-(1-benzylpiperidin-4-yl)methylidene]-1H-indole-3-carbohydrazide] | 77 |  | 26.3 ± 3.11 | 38.97 ± 3.58 | 4.466 | 72 | 10.8 ± 1.66 | 97.3 | 168 ± 10.4 | 30.05 ± 0.55 | > 300 | 0.89 ± 0.07 | 0.87 ± 0.02 | 0.85 ± 0.05 | 0.85 ± 0.07 | 0.74 ± 0.05 |  | 2.45 | 36.69 ± 0.70 | > 5000
4 | CC(C)(C)OC(=O)NCC(=O)N/N=C/c1cn(Cc2ccccc2)c2ccccc12 [3m, tert-butyl(2-{(2E)-2-[(1-benzyl-1H-indol-3-yl)methylidene]hydrazinyl}-2-oxoethyl)carbamate] | 59.4 | 3.05 | 327 ± 34.3 | 19.06 ± 1.96 | 4.377 | 2.01 | > 1000 | 7.2 ± 1.8 | 65.4 ± 5.1 | 32.06 ± 4.70 | 109 ± 9.1 | 0.89 ± 0.09 | 0.89 ± 0.01 | 0.92 ± 0.05 | 0.95 ± 0.01 | 0.96 ± 0.08 |  |  | 36.20 ± 1.40 | > 5000
5 | COc1ccc2[nH]cc(/C=N/NC(=O)Cc3c[nH]c4ccccc34)c2c1 [3n, 2-(1H-indol-3-yl)-N’-[(E)-(5-methoxy-1H-indol-3-yl)methylidene]acetohydrazide] | 73.7 | 47.34 | 21.1 ± 1.48 | 14.30 ± 0.56 | 4.084 | 29.2 | > 1000 | 108 ± 9.4 | 48.2 ± 6.4 | 40.62 ± 0.83 | 83.7 ± 8.3 | 0.85 ± 0.05 | 0.87 ± 0.07 | 0.89 ± 0.04 | 0.90 ± 0.01 | 0.92 ± 0.06 |  |  | ≥100 | 770 ± 60
6 | O=S(=O)(N/N=C/C1CCN(Cc2ccccc2)CC1)c1ccccc1 [5a, N’-[(E)-(1-benzylpiperidin-4-yl)methylidene]benzenesulfonohydrazide] | 79.4 |  | 259 ± 4.9 | 17.48 ± 0.90 | 4.749 | 77 | 163 ± 10.7 | 142 ± 13.1 | 157 ± 8.5 | 6.56 ± 0.78 | > 300 | 0.83 ± 0.02 | 0.88 ± 0.08 | 0.89 ± 0.04 | 1.00 ± 0.04 | 1.10 ± 0.05 |  |  | 43.80 ± 0.23 | > 5000
